Assay results as given in patent publication US20050182002A1, “Agents which interact with a serotonin transporter for the treatment of cancer” (priority 2002, published 2005).
Read-outs that look alike come from different tables or passages of the source.

What was measured:
Type in all cases: cell-based
[1] = system: L3055 BL cells; experiment: DNA synthesis by [3H]-thymidine incorporation in L3055 cells; settings: for influence of pre-treatment on 5-HT-dependent inhibition of DNA synthesis (in words): cells pre-treated with agent before 5-HT; for effect on DNA synthesis (in words): single dose, range of concentrations, [3H]-thymidine incorporation at 24 hr; for inhibition at 50 µM: L3055, 5-HT 50 μM
Experimental: (§1) DNA synthesis was determined by measuring ^3H-thymidine ([^3H]Tdr; Amersham, UK) incorporation into cellular DNA. Cells were cultured in 200 μL of supplemented medium at densities and for times indicated below in flat-bottomed, 96-well tissue culture plates (Becton Dickinson, Oxford, U K) then pulsed for the final 4 h with 50 μl of 10 μCi/ml [^3H]Tdr before harvesting on a Skatron cell harvester (Helis Bio Ltd, Newmarket, UK).

[2] = system: L3055 cells; experiment: Caspase activity (FAM-VAD-FMK, FACS); settings: for effect on number of cells showing caspase activity (in words): single dose for 24 hours, fluoxetine 10 μM, paroxetine 10 μM, citalopram 100 μM
Experimental: Caspase activity was detected using the CaspaTag Caspase Activity Kit (Intergen, Oxford, UK). Cells cultured under the conditions indicated below were harvested into 300 μl of culture medium at a cell density of 10^6cells/ml, followed by the addition of […] of a 30×working solution of FAM-VAD-FMK (a carboxy fluorescent tagged caspase inhibitor) (Intergen Co., USA). Cells were then incubated for 1 hr at 37° C. under 5% CO2 while protecting the tubes from light. At the end of the incubation, they were washed twice in 2 ml of 1×washing buffer, followed by addition of 2 μl of PI to distinguish dead cells from live cells, then analysed on an EPICS XL-MCL flow cytometer or by confocal microscopy. For the latter, treated cells were harvested into 300 μl of culture medium containing 10 μl of FAM-VAD-FMK before incubating for 1 hr under the conditions described above. Next, 1.5 μl of Hoechst 33342 stain was added for 5 min, and cells were washed twice in 2 ml of 1×washing buffer following the addition of 1 μl of PI.

[3] = system: L3055 cells; experiment: Intracellular free Ca2+; settings: data not shown
Source text: The increase in intracellular free Ca^2+ is known to be an important step in the induction of apoptosis.

[4] = system: Bcl-2 transfected BL cell line; experiment: Viability (FACS light scatter) of Bcl-2 transfected BL cell line
Experimental: Group I Burkitt's lymphoma cell lines L3055 (EBV^neg), BL2 (EBV^neg), Elijah (EBV^pos), and MUTU I (EBV^pos) were maintained in early passage as described previously (Baker M P, Eliopoulos E, Young L S, Armitage R J, Gregory C D, Gordon J. Blood (1998); 92:2830-2843). The late passage group III BL line MUTU III (EBV^pos) was also used with all cells cultured in RPMI 1640 medium supplemented with 10% Serum Supreme (BioWhittaker, Wokingham, UK), 2 mM glutamine, 100 IU/ml penicillin and 100 μg/ml streptomycin. […]
Changes in the viability of cells cultured under conditions indicated below were quantified by assessment of forward and 90° (side) light scatter of cells as previously described (Dive C, et al. Biochimica Biophysica Acta (1992); 1133:275-285) using an EPICS XL-MCL flow cytometer (Beckman Coulter, Miami, Fla., USA). […] Viability was expressed as a percentage of the total number of cells residing in the viable and non-viable gates. Cells were also analysed according to Schuurhuis et al (Schuurhuis G J, et al. Exp. Haematol. (1997); 25:754-759) in order to assess the percentages within treated populations of those that were viable, apoptotic, or necrotic. […]

[5] = system: L3055 cells; experiment: Viability by FACS forward versus side light scatter
Experimental: (§2) Changes in the viability of cells cultured under conditions indicated below were quantified by assessment of forward and 90° (side) light scatter of cells as previously described (Dive C, et al. Biochimica Biophysica Acta (1992); 1133:275-285) using an EPICS XL-MCL flow cytometer (Beckman Coulter, Miami, Fla., USA). Prior to analysis, cells were harvested into polythene FACS tubes, and fixed at 4° C. in 400 μl of FACS buffer [PBS with 5% NGS and 2% Formaldehyde] (BDH/MERCK). Cells were gated in two populations (viable and dead) according to their forward and side light scatter. Viability was expressed as a percentage of the total number of cells residing in the viable and non-viable gates. Cells were also analysed according to Schuurhuis et al (Schuurhuis G J, et al. Exp. Haematol. (1997); 25:754-759) in order to assess the percentages within treated populations of those that were viable, apoptotic, or necrotic. Syto 16 was added at a concentration of 250 nM in PBS to 500,000 cells and incubated at RT for 30 min, at which time 5 μg/ml propidium iodide (PI) was added. Samples were then analysed immediately by FACS and a 2D plot generated of syto 16 fluorescence versus PI fluorescence: syto 16 is taken up only by viable cells whereas Pi exclusively enters necrotic cells—syto 16^−ve/PI^−ve cells are deemed apoptotic.

[6] = system: T-cell leukaemia line, Jurkat; experiment: 5-HT sensitivity of Jurkat line; settings: not shown
[7] = system: L3055 cells; experiment: Mitochondrial depolarisation with JC-1 dye; settings: following exposure to 5-HT; not shown
Experimental: Apoptosis was assessed by staining cells with acridine orange and visualising nuclear morphology exactly as described previously (Gordon J, et al. Cell Death. Diff. (2000); 7:785-794). Viable cells display a homogeneous chromatin-staining pattern, whereas apoptotic cells characteristically show condensed and fragmented chromatin. Mitochondrial depolarisation was assessed using the JC-1 cationic dye. Cells were incubated with 10 μM of JC-1 for 30 min before being visualised on a LSM 510 confocal microscope (Zeiss, Germany). […] Mitochondrial depolarisation is indicated by a decrease in the red/green fluorescence ratio.

[8] = system: L3055 cells; experiment: Syto 16 / propidium iodide staining (viable, apoptotic, necrotic); settings: increasing concentrations, 24 hr
Experimental: as §2

[9] = system: group I BL cell lines Mutu I, Elijah, and BL2; experiment: DNA synthesis by [3H]-thymidine incorporation in other group I BL cell lines; settings: 125 μM 5-HT, 24 hr
Experimental: as §1
(§3) Three other group I BL cell lines were also investigated, namely: Mutu I, Elijah, and BL2.

[10] = system: L3055 cells; experiment: Cell cycle analysis (propidium iodide, flow cytometry); settings: 24 hr; each at its maximal concentration (5-HT 150 μM, fluoxetine 10 μM, anti-μ chain antibody 10 μg/ml)
Experimental: Cells cultured under conditions indicated below were harvested into 100 μl of 1×PBS followed by 400 μl cell cycle buffer containing Triton X-100 and propidium iodide and left to incubate at 4° C. for 1 hr to allow staining of DNA. The degree of fluorescence emitted by bound PI is directly proportional to the amount of DNA in each cell and was measured by flow cytometry as previously described (MacDonald I, et al. Blood (1996); 87:1147-1154). Results are expressed as percentage of viable cells residing in each phase of the cycle.

[11] = system: Mutu III, an apoptosis resistant (group III) BL cell line; experiment: DNA synthesis by [3H]-thymidine incorporation in Mutu III; settings: 125 μM 5-HT, 24 hr
Experimental: as §1, §3

[12] = system: L3055 cells; experiment: OxyDNA assay of oxidative damage to DNA; settings: 6 hr; 150 μM 5-HT or 30 μM H2O2
Experimental: Oxidative damage to DNA was quantified using the OxyDNA assay (Biotrin, Dublin, Ireland). Following culture of cells under conditions indicated below, they were washed first in 1×PBS then in wash solution followed by addition of 100 μl of blocking solution with a 1 hr incubation at 37° C. On washing twice in working solution, cells were then incubated with 100 μl FITC-conjugate for 1 hr in the dark at RT before being washed twice in washing solution and once in PBS. Finally, cells were resuspended in FACS buffer and analysed on an EPICS XL-MCL flow cytometer.
While the above experiments offer evidence that oxidative stress was not the cause of 5-HT-induced apoptosis in BL cells, further more direct examination of the generation of potential reactive oxygen species (ROS) as a consequence of 5-HT uptake was undertaken. For this the OxyuDNA assay was used, which quantifies 8-oxo-7,8-dihydro-2′-deoxyguanosine (8-oxodGuo) residues that are generated as a result of oxidative damage to DNA (see methods section 1.1.8 above).

For `C#CCN(C)CCCOc1ccc(Cl)cc1Cl` [clorgyline], the “influence of pre-treatment on 5-HT-dependent inhibition of DNA synthesis (in words)” value [1] was “the same outcome was observed”.
`Fc1ccc([C@@H]2CCNC[C@H]2COc2ccc3c(c2)OCO3)cc1` [paroxetine] was tested, and the “influence of pre-treatment on 5-HT-dependent inhibition of DNA synthesis (in words)” value [1] was “substantially reversed”, the “effect on DNA synthesis (in words)” value [1] was “dose dependent inhibitory effect” and the “effect on number of cells showing caspase activity (in words)” value [2] was “significant effect on the numbers of cells showing caspase activity”. For the same molecule, the “basal Ca2+ (in words)” value [3] was “increase in basal Ca^2+”.
With `CCN(CC)CCOC(=O)c1cc(Cl)c(N)cc1OC` [SDZ205-557] the “influence of pre-treatment on 5-HT-dependent inhibition of DNA synthesis (in words)” value [1] was “failed to influence the ability of 5-HT to inhibit DNA synthesis”.
For `CN(C)CCCN1c2ccccc2CCc2ccccc21` [imipramine], the “effect on DNA synthesis (in words)” value [1] was “dose dependant effect”, the “effect on number of cells showing caspase activity (in words)” value [2] was “significant effect on the number of cells exhibiting caspase activity” and the “cell killing in Bcl-2 transfected versus native BL cell line (in words)” value ([4]; 24 hrs) was “greatly reduced”. For the same molecule, the “survival (live cells)” value ([4]; Bcl-2 transfected BL cell line (panel II, FIG. 26)) was 91% and the “survival (live cells)” value ([5]; native cell line (panel I, FIG. 26)) was 30%.
`NCCc1c[nH]c2ccc(O)cc12` [Example 5-HT, Serotonin] was tested, and the “effect on level of DNA synthesis (in words)” value ([1]; 1 μM 5-HT, very early passage, lower cell numbers, data not shown) was “significant reduction”, the inhibition at 50 µM ([1]; cells plated at 2×10^4 per well) was about 35% and the inhibition at 50 µM ([1]; cells plated at 5×10^3 per well) was over 90%. The inhibition at 50 µM ([1]; cells plated at 10^4 per well) was about 70%, the IC50 ([1]; L3055, read-out: 5-HT required to achieve 50% inhibition of DNA synthesis, plated at 2.5×10^4 per ml (5×10^3 per well)) was about 5 µM and the IC50 ([1]; L3055, read-out: 5-HT required to achieve 50% inhibition of DNA synthesis, plating density 10^5 per ml (2×10^4/well)) was over 50 µM. The “effect on DNA synthesis (in words)” value [1] was “caused a reduction in DNA synthesis in a concentration-dependent manner”, the “sensitivity to 5-HT actions (in words)” value [6] was “insensitive” and the “mitochondrial membrane potential (in words)” value [7] was “loss of mitochondrial membrane potential”. The “number of viable cells (syto 16+ve/PI−ve) (in words)” value [8] was “decreased in a concentration-dependent manner”, the “effect on DNA synthesis (in words)” value [9] was “substantial decrease in DNA synthesis” and the “% caspase activation (6 h)” value ([2]; 5-HT 150 μM, fluoxetine 5 μM, paroxetine 2 μM, citalopram 10 μM, means ± S.E.M. of 3, control 27.3 ± 1.20) was 58.3 ± 2.03%. For the same molecule, the “percentage of cells showing caspase activity” value ([2]; 6 hr 5-HT treatment, background level 29%) was 59%, the “cell cycle status (in words)” value [10] was “accumulation of arresting cells in the G0/G1 compartment” and the “cells with light scatter characteristics of dead cells (in words)” value ([5]; 1 to 150 μM, 24 hr) was “dramatic concentration-dependent increase in the number of L3055 cells acquiring light scatter characteristics of dead cells”. For the same molecule, the viability at 150 µM ([5]; L3055, 24 h, read-out: % viable cells (24 h)) was 21.3 ± 8.65%, the “effect on DNA synthesis (in words)” value [11] was “only marginally decreased DNA synthesis” and the “level of oxidatively damaged DNA (8-oxoguanosine residues) (in words)” value [12] was “no increase in the level of oxidatively damaged DNA”.
For `OO` [Example H2O2, H2O2], the “level of oxidatively damaged DNA (8-oxoguanosine residues) (in words)” value [12] was “large increase in the level of 8-oxoguanosine residues generated”.
`C#CCN(C)[C@H](C)Cc1ccccc1` [deprenyl] was tested, and the “influence of pre-treatment on 5-HT-dependent inhibition of DNA synthesis (in words)” value [1] was “the same outcome was observed”.
In the case of `C#CCN(C)Cc1ccccc1` [pargyline], the “effect of agent by itself on DNA synthesis (in words)” value ([1]; 100 μM pargyline, no 5-HT) is reported as “no deleterious effect by itself” and the “influence of pre-treatment on 5-HT-dependent inhibition of DNA synthesis (in words)” value [1] is reported as “failed to influence 5-HT-induced cessation of DNA synthesis”.
